The values that follow are results of earlier work, collected in patent US5641787A, “Indole derivatives as dopamine D4 antagonists” (Merck, Sharp & Dohme Ltd., priority 1995, dated 1997).

The conditions of the series: stated in Recl. Trav. Chim. Pays-Bas, 1954, 73, 629.

As for `c1ccc2c(c1)CCN(Cc1c[nH]c3ccccc13)C2` [3-(1,2,3,4-tetrahydroisoquinolin-2-yl)methyl-1H-indole], the oxytocic activity entry was “oxytocic activity”.
